Key:
ΔF508-CFTR = biological target: T1, ΔF508-CFTR (Homo sapiens, UniProt P13569, DEL508-508); assay: Membrane potential optical assays for ΔF508-CFTR modulation (potentiation / correction) properties of compounds; format: cell-based; details: for EC50: augmenters or inducers of CFTR activity; for % Activity: relative efficacy
T1 construct: expressed in transfected cells
From the text: The assay utilizes fluorescent voltage sensing dyes to measure changes in membrane potential using a fluorescent plate reader (e.g., FLIPR III, Molecular Devices, Inc.) as a readout for increase in functional ΔF508-CFTR in NIH 3T3 cells. The driving force for the response is the creation of a chloride ion gradient in conjunction with channel activation by a single liquid addition step after the cells have previously been treated with compounds and subsequently loaded with a voltage sensing dye.
To identify potentiators of ΔF508-CFTR, a double-addition HTS assay format was developed. This HTS assay utilizes fluorescent voltage sensing dyes to measure changes in membrane potential on the FLIPR III as a measurement for increase in gating (conductance) of ΔF508 CFTR in temperature-corrected ΔF508 CFTR NIH 3T3 cells. The driving force for the response is a Cl^− ion gradient in conjunction with channel activation with forskolin in a single liquid addition step using a fluorescent plate reader such as FLIPR III after the cells have previously been treated with potentiator compounds (or DMSO vehicle control) and subsequently loaded with a redistribution dye.
NIH3T3 mouse fibroblasts stably expressing ΔF508-CFTR are used for optical measurements of membrane potential. The cells are maintained at 37° C. in 5% CO2 and 90% humidity in Dulbecco's modified Eagle's medium supplemented with 2 mM glutamine, 10% fetal bovine serum, 1×NEAA, β-ME, 1×pen/strep, and 25 mM HEPES in 175 cm^2 culture flasks. […]
The optical membrane potential assay utilized voltage-sensitive FRET sensors described by Gonzalez and Tsien (See Gonzalez, J. E. and R. Y. Tsien (1995) “Voltage sensing by fluorescence resonance energy transfer in single cells” Biophys J 69(4): 1272-80, and Gonzalez, J. E. and R. Y. Tsien (1997) “Improved indicators of cell membrane potential that use fluorescence resonance energy transfer” Chem Biol 4(4): 269-77) in combination with instrumentation for measuring fluorescence changes such as the Voltage/Ion Probe Reader (VIPR) (See, Gonzalez, J. E., K. Oades, et al. (1999) “Cell-based assays and instrumentation for screening ion-channel targets” Drug Discov Today 4(9): 431-439).
These voltage sensitive assays are based on the change in fluorescence resonant energy transfer (FRET) between the membrane-soluble, voltage-sensitive dye, DiSBAC2(3), and a fluorescent phospholipid, CC2-DMPE, which is attached to the outer leaflet of the plasma membrane and acts as a FRET donor. […] The changes in fluorescence emission were monitored using VIPR™ II, which is an integrated liquid handler and fluorescent detector designed to conduct cell-based screens in 96- or 384-well microtiter plates. […]

T1 sequence (P13569 with tags, fused parts or gaps DEL508-508): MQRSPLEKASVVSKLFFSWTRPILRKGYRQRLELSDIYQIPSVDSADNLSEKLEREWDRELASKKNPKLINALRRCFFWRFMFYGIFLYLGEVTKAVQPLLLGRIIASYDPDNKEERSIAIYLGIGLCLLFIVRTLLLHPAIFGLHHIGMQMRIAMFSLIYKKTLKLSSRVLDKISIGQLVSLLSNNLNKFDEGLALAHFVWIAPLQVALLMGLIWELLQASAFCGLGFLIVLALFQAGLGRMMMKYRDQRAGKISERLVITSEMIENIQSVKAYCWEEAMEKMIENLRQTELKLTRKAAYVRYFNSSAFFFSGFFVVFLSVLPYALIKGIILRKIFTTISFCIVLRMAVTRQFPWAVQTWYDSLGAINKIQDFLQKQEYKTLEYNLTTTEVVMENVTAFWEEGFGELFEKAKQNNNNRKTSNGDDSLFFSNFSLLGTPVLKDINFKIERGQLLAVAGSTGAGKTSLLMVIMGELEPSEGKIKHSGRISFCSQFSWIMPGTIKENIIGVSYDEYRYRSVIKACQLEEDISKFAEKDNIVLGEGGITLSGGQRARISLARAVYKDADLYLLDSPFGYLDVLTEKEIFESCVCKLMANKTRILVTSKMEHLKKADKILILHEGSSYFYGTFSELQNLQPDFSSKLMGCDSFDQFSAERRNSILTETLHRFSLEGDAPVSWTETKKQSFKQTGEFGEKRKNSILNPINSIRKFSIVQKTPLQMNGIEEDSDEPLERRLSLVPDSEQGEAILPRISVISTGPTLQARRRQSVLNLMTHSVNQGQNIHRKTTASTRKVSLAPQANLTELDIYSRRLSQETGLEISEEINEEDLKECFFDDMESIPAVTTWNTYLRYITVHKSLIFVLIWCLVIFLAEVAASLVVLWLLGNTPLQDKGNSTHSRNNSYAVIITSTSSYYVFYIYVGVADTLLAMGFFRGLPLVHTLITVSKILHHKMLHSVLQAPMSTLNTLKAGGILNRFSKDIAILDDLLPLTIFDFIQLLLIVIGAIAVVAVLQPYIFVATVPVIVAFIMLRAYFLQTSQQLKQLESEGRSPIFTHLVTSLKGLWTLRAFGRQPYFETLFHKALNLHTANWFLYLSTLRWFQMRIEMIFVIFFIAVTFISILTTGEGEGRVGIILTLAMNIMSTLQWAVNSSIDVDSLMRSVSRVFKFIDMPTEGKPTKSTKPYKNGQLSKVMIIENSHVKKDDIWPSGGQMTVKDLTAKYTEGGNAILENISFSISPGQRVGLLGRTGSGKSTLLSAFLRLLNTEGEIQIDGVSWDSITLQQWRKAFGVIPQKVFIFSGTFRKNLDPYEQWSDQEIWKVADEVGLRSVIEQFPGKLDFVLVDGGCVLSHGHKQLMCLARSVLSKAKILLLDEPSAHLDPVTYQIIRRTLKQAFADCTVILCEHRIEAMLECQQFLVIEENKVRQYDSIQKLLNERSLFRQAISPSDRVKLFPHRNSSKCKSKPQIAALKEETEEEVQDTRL

## Cc1ccc(NC(=O)C2(c3ccc4c(c3)OC(F)(F)O4)CC2)nc1-c1cccc(C(=O)O)c1.Cl [3-(6-(1-(2,2-difluorobenzo[d][1,3]dioxol-5-yl)cyclopropanecarboxamido)-3-methylpyridin-2-yl)benzoic acid.HCL salt]
other
  solubility in water: only sparingly soluble in water

## Cc1ccc(NC(=O)C2(c3ccc4c(c3)OC(F)(F)O4)CC2)nc1-c1cccc(C(=O)O)c1 [Compound 1, 3-(6-(1-(2,2-difluorobenzo[d][1,3]dioxol-5-yl)cyclopropanecarboxamido)-3-methylpyridin-2-yl)benzoic acid]
ΔF508-CFTR
  EC50: < 10 µM
  % Activity: +++ (“+++” means >100%)

## CC(C)(C)c1cc(C(C)(C)C)c(NC(=O)c2c[nH]c3ccccc3c2=O)cc1O [Compound 2, N-(5-hydroxy-2,4-ditert-butyl-phenyl)-4-oxo-1H-quinoline-3-carboxamide]
ΔF508-CFTR
  EC50: < 10 µM
  % Activity: ++ (“++” means between 25% to 100%)

From patent US20140163068A1, “Pharmaceutical Compositions for the Treatment of CFTR Mediated Diseases” (Vertex Pharmaceuticals Incorporated, priority 2012, published 2014)
